Assay: Bioaccumulation log Pow (slow stirring method)
Text: As mentioned before. The environmental acceptability of these esterquat surfactant compounds is of essential importance for emulsion breaking operations in oil production processes.

Substance: Dioleic acid triethanolamine esterquat [Di-oleic acid triethanolamine esterquat]
- bioaccumulation: log Pow: 0.73

From patent US20180291285A1 (Clariant International, Ltd., priority 2015, published 2018)
